Patent publication US10174065B2, “Antidiabetic enolic glucoside of phenylpyruvic acid” (ZADEC APS, priority 2010, dated 2019)

Experiments:
[1] = tested on: gene expression in muscle; test: Quantitative real-time PCR gene expression in muscle of obese, insulin resistant Wistar rats; assay type: in vivo
Experimental: (§1) Three week old male rats were fed a high fat diet for 24 weeks to induce obesity and insulin resistance. Thereafter, rats were treated with 0.3 mg/kg Rx-1 daily for two weeks, and then with 3 mg/kg Rx-1 daily for seven days. Fasting glucose concentrations were measured before treatment, after two weeks treatment with 0.3 mg/kg Rx-1 and then again after seven days treatment with 3 mg/kg Rx-1. After treatment with 3 mg/kg Rx-1 rats were terminated and liver, muscle and pancreas biopsies were taken. Quantitative real-time PCR was used to measure the expression of 12 genes in liver and muscle samples, and ten genes in pancreas samples.
(§2) Rats were housed at the Primate Unit (Medical Research Council, South Africa). Rat management including feeding, glucose measurements and terminations, were done according to standard operating procedures (Diabetes Discovery Platform, Medical Research Council). Briefly, three week old rats were fed a high fat diet for 24 weeks to induce T2D. The study group consisted of thirteen rats, eight rats were treated by daily gavage with 0.3 mg/kg Rx-1 for two weeks, and then with 3 mg/kg Rx-1 for seven days. Five rats were used as controls and were treated with water only for three weeks. Rats were terminated after treatment and liver, muscle and pancreas tissue harvested and stored in RNalater (Ambion) as recommended by the manufacturer. The study was approved by the ethics committee of the Medical Research Council of South Africa.
(§3) RNA extracted from liver, muscle and pancreas tissue was converted to cDNA using the High Capacity Reverse Transcription kit as recommended by the manufacturers (Applied Biosystems). In brief, 2 μg of DNase-treated RNA was added to nuclease-free water in a volume of 10 μl. Thereafter, 2 μl reaction buffer, 0.8 μl dNTPs, 2 μl random primers, 1 μl RNase-inhibitor, 1 μl reverse transcriptase, and 3.2 μl nuclease-free water were added. The same reaction without the reverse transcription enzyme (minus RT reaction) was set-up to investigate genomic DNA contamination. Reactions were incubated at 25° C. for 10 min, 37° C. for 120 min, and 85° C. for 5 s to inactivate the reverse transcriptase. cDNA samples were stored at −20° C. until expression analysis.
(§4) For analysis of gene expression, 25 ng of cDNA prepared from liver, muscle and pancreas was mixed with 12.5 μl Taqman universal PCR master mix (Applied Biosystems), 1.25 μl gene-specific primer and probe mixtures (predeveloped Taqman gene expression assays, Applied Biosystems), and H2O in a final volume of 25 μl. The suffix _m represents an assay whose probe spans an exon-exon junction of the associated gene and therefore will not detect genomic DNA, while the suffix _s represents an assay whose primers and probes are designed within a single exon, such assays will detect genomic DNA.
(§5) The PCR reactions were conducted on the ABI 7500 Sequence Detection System Instrument (Applied Biosystems) using universal cycling conditions as described before. All samples were run in duplicate. Data generated on the ABI 7500 Instrument were analysed with the ABI Relative Quantitation (RQ) software (SDS V1.4) using a Ct threshold of 0.1. Relative expression levels were determined by using the 2^−ΔΔCt method, where ΔΔCt=(Ctgene studied−Cthousekeeping gene)treated−(Ctgene studied−Cthousekeeping gene)control. The gene expression was normalised to housekeeping genes to correct for differences in cDNA loading. Two gene expression assays, β-actin (ActB) and glyceraldehyde-3-phosphate dehydrogenase (Gapdh) (Table 1) were used as endogenous controls. Relative gene expression data generated by the RQ software for each of the two endogenous controls individually or the data normalised to the average of the two endogenous controls were imported into Microsoft Excel and analysed. […]

[2] = tested on: gene expression in pancreas; test: Quantitative real-time PCR gene expression in pancreas of obese, insulin resistant Wistar rats; assay type: in vivo
Experimental: as §1, §2, §3, §4, §5

[3] = tested on: glucose stimulated insulin secretion; test: Glucose stimulated insulin secretion rate AUC in prediabetic vervet monkeys (FIG. 2); assay type: in vivo; settings: versus untreated
Experimental: Prediabetic vervet monkeys (fasting plasma glucose levels between 4.0 and 5.5 mM) were treated with 10 ug/kg RX-1 3 times daily with meals for 7 days. Blood samples were collected following 1.75 g/kg oral glucose stimulation at 0, 5, 10, 15, 30, 60, 90, 120 and 180 minutes. AUC values calculated mean glucose stimulated insulin secretion values over the time interval 0-120 min. Four monkeys were used in each group (untreated, RX1-treated).

plasma glucose level = test: Reduction in plasma glucose of a diabetic primate after a single dose (FIG. 1); assay type: in vivo, monkeys; settings: diabetic primate M1081, baseline glucose 6.3 mmol/L, over 6 h after a single dose, 10.4 ug/kg BW
GLP1 = settings: blood of treated OB/IR rats; other studies in our laboratory (Louw et al. 2008); cited from earlier work

Q: What does the source list for `O=C(O)/C(=C/c1ccccc1)O[C@@H]1O[C@H](CO)[C@@H](O)[C@H](O)[C@H]1O` [RX-1, 3-Phenyl-2-(3,4,5-trihydroxy-6-hydroxymethyl-tetrahydro-pyran-2-yloxy)-acrylic acid]?
A: Gck mRNA levels [1]: decreased; Glut4 mRNA levels [1]: unaffected; IR gene expression [1]: did not affect; IRS1 mRNA levels [1]: unchanged; IRS2 mRNA levels [1]: unchanged; GcgR gene expression ([1]; not statistically significant): increased; SOCS1 mRNA expression ([1]; not statistically significant): increased; SOCS3 mRNA expression ([1]; not statistically significant): increased; Pcsk2 or proconvertase 2 (PC2) mRNA levels [2]: unaffected; nestin mRNA levels [2]: unaffected; GLP1R gene expression ([2]; not statistically significant): increased; Gcg mRNA levels ([2]; not statistically significant): increased; GcgR mRNA levels ([2]; not statistically significant): increased; Ins1 gene expression ([2]; not statistically significant): increased; Ins2 gene expression ([2]; not statistically significant): increased; Isl1 mRNA levels ([2]; not statistically significant): increased; Pdx1 gene expression ([2]; not statistically significant): increased; glycaemic control ([3]; 10 ug/kg 3 times daily for 7 days): better glycaemic control; decrease of glucose stimulated insulin secretion (AUC 0-120 min) ([3]; 10 ug/kg 3 times daily with meals for 7 days, 1.75 g/kg oral glucose stimulation, FIG. 2): 46%; reduction in plasma glucose level (plasma glucose level): reduce the blood sugar of monkeys for prolonged periods of time; circulating GLP1 levels (GLP1): increased
